Consider 5 compounds from patent US20120119081A1, “INSECT-BASED MODEL FOR PHARMACO-KINETIC STUDIES” (priority 2009, published 2012).

A short description of data set [1]: Locust hemolymph kinetics after injection into the hemolymph (LCMS). The method, then: The insects may be obtained from local suppliers or bred in house. The grasshoppers were reared under crowded conditions at 28° C. and a 12:12 dark:light photocycle and fed fresh grass and bran. Before experiments the grasshoppers were fed ecologically cultivated wheat for two weeks. Animals used are adult males (in some experiments females) between two to four weeks after adult emergence. Test compounds are administrated into the hemolymph by use of a Hamilton syringe and inserting the needle between two abdominal terga or administered intraintestinal by use of a catheter or a steel probe. At various time points after administration hemolymph samples are taken for quantitative determination of drug concentration in the hemolymph. The samples are snap-frozen and stored until analyses. Drug concentration is analysed by HPLC, LC/MSMS or other methods. In studies of drug retention various organs e.g. heart, fat bodies and brain are dissected at various times after drug administration. The tissues are washed, snap-frozen and stored until analyses. At analyses the tissues are homogenized/vortexed/sonicated and centrifuged. The drug concentration in the tissues is determined as above.
(§1) 40 ul of an approximately 5 mg/ml solution of quinidine was injected into the hemolymph of Locusts (Locusta migratoria). The test compound was administered by using a Hamilton syringe. At 5, 15, 45, 120, and 360 minutes after administration (10 ul) hemolymph was collected from each locust with a calibrated capillary tube by puncturing the ventral membrane between the head and the thorax and immediately blown into a tube containing 40 ul aqua dest and 100 ul of acetonitrile. Each sample was centrifuged for 5 minutes (10 000 g at 4° C.) and 100 ul of the supernatants were transferred to new test tubes for LCMS analysis.
(§2) The test compound was administered by using a Hamilton syringe. At 5, 15, 45, 120, and 360 minutes after administration (10 ul) hemolymph was collected from each locust with a calibrated capillary tube by puncturing the ventral membrane between the head and the thorax and immediately blown into a tube containing 40 ul aqua dest and 100 ul of acetonitrile. Each sample was centrifuged for 5 minutes (10 000g at 4° C.) and 100 ul of the supernatants were transferred to new test tubes for LCMS analysis.
as §1, with “caffeine” for “quinidine”, “000g” for “000 g”
as §2
Mianserin was injected into the hemolymph of Locusts (Locusta migratoria). The administered volume was 40 ul (administered by using a Hamilton syringe) at a concentration of 8.8 mg/ml. At 5, 15 and 45 minutes after administration (2×20 ul) hemolymph was collected from the locusts with a calibrated capillary tube by puncturing the ventral membrane between the head and the thorax and immediately blown into a tube containing 60 ul aqua dest and 200 ul of acetonitrile.

For data set [2] the following is noted: cited from earlier work; for Volume of distribution (in words): human / vertebrate, relative statement.
The conditions of data set [3]: cited from earlier work.
The mark [4] stands for this setting: Locusta migratoria, in vivo, 0.4 mg per locust (approximately).
Where [5] appears, read: locust, after intrahemolymphic administration, comparison between test compounds.
The mark [6] stands for this setting: Locusta migratoria, in vivo, 0.2 mg per locust (approximately).

In data set [1] (setting [4]), `O=C1CC2(CCCC2)CC(=O)N1CCCCN1CCN(c2ncccn2)CC1` [buspirone] returned a concentration at 5 min of 10700 ng/mL, a concentration at 15 min of 6500 ng/mL and a concentration at 45 min of 3800 ng/mL. Also, in data set [1] (setting [5]), the “Hemolymph elimination / clearance (in words)” value is listed as “increased elimination similar to haloperidol”.
For the compound `Cn1c(=O)c2c(ncn2C)n(C)c1=O` [caffeine], the “Volume of distribution (in words)” value in data set [2] is “much lower volume of distribution compared to propranolol”. In data set [1] (setting [6]), the concentration at 5 min turned out to be 9280 ng/mL, the concentration at 15 min was determined as 9010 ng/mL, the concentration at 45 min was 8780 ng/mL and the concentration at 120 min is 6820 ng/mL. The concentration at 360 min in data set [1] (setting [6]) amounted to 5500 ng/mL. In data set [1] (setting [4]), this compound gave a concentration at 5 min of 29000 ng/mL, a concentration at 15 min of 24000 ng/mL and a concentration at 45 min of 23000 ng/mL. The “Hemolymph elimination / clearance (in words)” value in data set [1] (setting [5]) is reported as “non dose dependent hemolymph clearance”.
As for `CN(C)C(=O)C(CCN1CCC(O)(c2ccc(Cl)cc2)CC1)(c1ccccc1)c1ccccc1` [loperamide], the “Solubility (in words)” value in data set [3] is on record as “less soluble”. For the same compound, in data set [1] (setting [4]), the concentration at 5 min came out at 5600 ng/mL, the concentration at 15 min is 3000 ng/mL and the concentration at 45 min turned out to be 1700 ng/mL.
As to `CC(C)NCC(O)COc1cccc2ccccc12` (stereo not drawn) [propranolol], the “Volume of distribution (in words)” value in data set [2] was “much larger volume of distribution”. Further, the “Half life (in words)” value in data set [2] (human, compared to atenolol) is recorded as “much shorter half life”.
Turning to `O=c1n(CCCN2CCN(c3cccc(Cl)c3)CC2)nc2ccccn12` [trazodone], the “Hemolymph elimination / clearance (in words)” value in data set [1] (in vivo) is “stable for 15 minutes”.
